Experimental data: ChEMBL document CHEMBL1148205, “Strongylophorine-26, a new meroditerpenoid isolated from the marine sponge Petrosia (Strongylophora) corticata that exhibits anti-invasion activity” (J Nat Prod, 2004)
≈ marks a conversion by molar mass, not a printed value. Calls of active or inactive are those of the source. No cut-off for these calls is given here.

Experiments:
Assay type in all cases: functional, cell-based
MDA-MB-231 [1] = assay: Inhibition of human MDA-MB-231 cells invasion by Matrigel cell invasion assay
MDA-MB-231 [2] = assay: Inhibition of human MDA-MB-231 cells invasion at 2.5 ug/mL by Matrigel cell invasion assay
MDA-MB-231 [3] = assay: Inhibition of human MDA-MB-231 cells invasion at <50 ug/mL by Matrigel cell invasion assay

| IC50 (MDA-MB-231 [1]) | Compound | Activity (MDA-MB-231 [2]) | Activity (MDA-MB-231 [3]) |
| --- | --- | --- | --- |
| 1 µg/mL (≈ 2.19 µM) | COC1=CC(=O)C=C(C[C@H]2[C@]3(C)CC[C@@H]4[C@]5(CCC[C@]4(C)C(=O)OC5)[C@H]3CC[C@]2(C)O)C1=O [strongylophorine-26] | Active | – |
| 7 µg/mL (≈ 16.3 µM) | C[C@@]12CC[C@@H]3[C@]4(CCC[C@]3(C)C(=O)OC4)[C@H]1CC[C@](C)(O)[C@H]2Cc1cc(O)ccc1O [strongylophorine-8] | – | – |

Further lines, the molecule ahead of its results:

| Compound | IC50 (MDA-MB-231 [1]) | Activity (MDA-MB-231 [2]) | Activity (MDA-MB-231 [3]) |
| --- | --- | --- | --- |
| NCCCNCCCN1CCCC/C=C\CCCCCCCC1 [MOTUPORAMINE C] | 0.3 µg/mL (≈ 0.927 µM) | – | – |
| C=C1CCC[C@H]2[C@](C)(CC3=C(O)C(=O)C=C(OC)C3=O)[C@@H](C)CC[C@]12C | – | – | inactive |
| C[C@@]12CC[C@@H]3[C@]4(CCC[C@]3(C)C(=O)OC4)[C@H]1CC[C@](C)(O)[C@H]2CC1=CC(=O)C=CC1=O | 7 µg/mL (≈ 16.4 µM) | – | – |
